Assay results published in patent US9701709B2 (REATA PHARMACEUTICALS, INC., priority 2012, dated 2017).
Like-named read-outs stand apart in the source and are kept apart here.

Experiments:
[1] = system: RANKL-induced osteoclastogenesis in RAW264.7; test: RANKL-induced osteoclastogenesis (TRAP activity) in RAW264.7; type: cell-based; conditions: Mus musculus, 96 h, 50 ng/mL RANKL, four days, read-out: IC50, RANKL-induced TRAP activity and formation of osteoclasts
Protocol: STAT3 (124H6) and phospho-STAT3 (Tyr705) monoclonal antibodies were from Cell Signaling Technology. Peroxidase-conjugated Affini-pure Goat anti-Rabbit IgG and Peroxidase-conjugated Affini-pure Goat anti-Mouse IgG were from Jackson ImmunoResearch. Osteoclastogenesis is a multi-step differentiation process that results from the binding of RANKL to its receptor, RANK, on cells of hematopoietic origin. […] RAW 264.7 cells were plated in 24-well plates at a density of 5,000 cells/well. […] The treated cells were incubated for four days to allow differentiation into osteoclasts. Differentiation into osteoclasts was assessed by measuring TRAP activity. In brief, 90 μl of conditioned cell culture media was removed from each test well and aliquoted into triplicate wells (30 μL/well) of a 96-well plate. 170 μL of TRAP Assay buffer (Kamiya Biomedical) was then added to each well and the plate was incubated at 37° C. for 3 hours. Following the incubation, absorbance at 540 nm was determined using a Spectramax M2 plate reading spectrophotometer.

[2] = system: bleomycin-induced pulmonary fibrosis; test: Bleomycin-induced pulmonary fibrosis in mice; type: in vivo, mouse; conditions: 10, 30, or 100 mg/kg oral gavage daily for 39 days
[3] = Oral pharmacokinetics in mice; type: in vivo, mouse; conditions: oral suspension, 10 to 100 mg/kg
Protocol: (§1) Measurements were performed on TQD and QToF mass spectrometers (Waters).
(§2) Following oral administration of a suspension formulation at doses of 10 to 100 mg/kg, maximal concentrations were observed within 1 to 2 h in mice, and within 1 to 24 h in rats and monkeys.

[4] = system: radiation-induced oral mucositis; test: Radiation-induced oral mucositis in hamsters
CYP3A4/5 = test: CYP450 inhibition in pooled human liver microsomes, CYP3A4/5; type: in vitro ADME; conditions: read-out: Ki, direct inhibition of CYP3A4/5
Description: (§3) In addition, there was little or no evidence of metabolism-dependent inhibition of any of the enzymes tested.

NQO1 activity = NQO1 activity induction in mouse liver, lung, and kidney after PO QD×3; type: in vivo; conditions: mice PO QD×3 25 mg/kg, 6 h after last dose
Protocol: FIG. 53—NQO1 activity induction in mouse liver, lung, and kidney by 63415. Mice were dosed PO QD×3 with 25 mg/kg. Tissues were collected 6 h after the last dose, and analysis of NQO1 activity was performed.

[5] = system: pyruvate in C2Cl2 muscle cells; test: Pyruvate levels in C2Cl2 myotubes; type: cell-based, rodent; conditions: differentiated C2Cl2 myotubes; 250 nM or 500 nM, 18 h
Protocol: Following drug treatment, media was removed and cells were washed with PBS. Cells were lysed in Pyruvate Assay Buffer (Pyruvate Assay Kit, BioVision, Catalog # K609-100). Cell lysates were centrifuged (10 min at 14,000 rpm, 4° C.) and pyruvate levels were measured in the supernatant.

CYP2D6 = CYP2D6 (Homo sapiens, UniProt P10635); test: CYP450 inhibition in pooled human liver microsomes, CYP2D6; type: in vitro ADME; conditions: highest concentration tested (3 μM)
Sequence of CYP2D6 (P10635 whole entry): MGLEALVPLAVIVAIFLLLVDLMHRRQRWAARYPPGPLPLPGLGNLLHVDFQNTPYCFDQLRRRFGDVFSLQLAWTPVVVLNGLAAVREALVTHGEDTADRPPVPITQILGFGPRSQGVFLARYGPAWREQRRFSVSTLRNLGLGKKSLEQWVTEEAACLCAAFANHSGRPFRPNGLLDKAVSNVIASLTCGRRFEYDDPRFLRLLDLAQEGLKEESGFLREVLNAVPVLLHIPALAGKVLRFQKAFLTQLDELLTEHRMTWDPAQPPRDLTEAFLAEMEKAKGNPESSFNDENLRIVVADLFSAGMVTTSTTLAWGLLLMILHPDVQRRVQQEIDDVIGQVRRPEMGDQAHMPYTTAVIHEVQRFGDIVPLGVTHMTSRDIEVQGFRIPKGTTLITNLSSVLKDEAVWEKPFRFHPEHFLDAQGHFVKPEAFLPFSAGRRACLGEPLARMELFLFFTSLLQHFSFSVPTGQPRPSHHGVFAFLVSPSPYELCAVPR
Description: as §3

[6] = 28-day toxicity study in rats; type: in vivo, rat
[7] = Oral pharmacokinetics in monkeys; type: in vivo, monkey; conditions: oral suspension, 10 to 100 mg/kg
Protocol: as §1, §2

[8] = system: bleomycin-induced pulmonary fibrosis
ovalbumin-induced asthma = test: Ovalbumin-induced asthma in mice; type: in vivo, mouse
Description: Mice were sensitized with an IP injection of ovalbumin and aluminum hydroxide on Day 0 and Day 14 and challenged intranasally with ovalbumin in saline on Days 14, 25, 26, and 27. […] An increase in the number of T cells and B cells was also observed in the vehicle-treated mice.

[9] = Plasma protein binding (ultracentrifugation), minipig
[10] = Plasma protein binding (ultracentrifugation), monkey
[11] = 3 and 10 mg/kg daily for 28 days

CC1(C)CC[C@]2(NC(=O)C(C)(F)F)CC[C@]3(C)[C@H](C(=O)C=C4[C@@]5(C)C=C(C#N)C(=O)C(C)(C)[C@@H]5CC[C@]43C)[C@@H]2C1 [RTA 408, N-((4aS,6aR,6bS,8aR,12aS,14aR,14bS)-11-cyano-2,2,6a,6b,9,9,12a-heptamethyl-10,14-dioxo-1,2,3,4,4a,5,6,6a,6b,7,8,8a,9,10,12a,14,14a,14b-octadecahydropicen-4a-yl)-2,2-difluoropropanamide]
IC50 [1]: 5 to 10 nM | Inflammation and interstitial fibrosis (lung histology) [2]: no statistically significant effects were observed | Time of maximal concentrations [3]: 1 to 2 h | Reduction in ulceration ([4]; 30 mg/kg and 100 mg/kg BID×20): ≤ 36% | Euthanasia due to weight loss in excess of 20% ([4]; 100 mg/kg): two out of eight hamsters in the 100 mg/kg dose group were euthanized on Day 2 | Duration of ulcerative mucositis ([4]; 30 and 100 mg/kg twice daily): significant reduction in the duration of ulcerative mucositis | Ki (CYP3A4/5): ~500 nM | NQO1 activity induction, Kidney (NQO1 activity): 10.9 | NQO1 activity induction, Liver (NQO1 activity): 10.9 | NQO1 activity induction, Lung (NQO1 activity): 1.75 | Intracellular pyruvate levels [5]: increased intracellular pyruvate levels in a dose-dependent manner | inhibition at 3 µM (CYP2D6): < 50% | Transaminases [6]: Transaminase elevations were observed | Time of maximal concentrations [7]: 1 to 24 h | Animals with Mild trichrome staining intensity ([8]; 3 mg/kg): 0 | Animals with Minimal trichrome staining intensity ([8]; 3 mg/kg): 0 | Animals with Moderate trichrome staining intensity ([8]; 3 mg/kg): 7 | Animals with Mild trichrome staining intensity ([8]; 10 mg/kg): 4 | Animals with Minimal trichrome staining intensity ([8]; 10 mg/kg): 3 | Animals with Moderate trichrome staining intensity ([8]; 10 mg/kg): 1 | Tolerability of 30-mg/kg dose (stopped on day 14) ([8]; 30 mg/kg daily oral gavage): excessive dehydration and diarrhea | PMN cell infiltration into the lungs [8, 11]: significantly suppressed polymorphonuclear (PMN) cell infiltration into the lungs | Reduction in hydroxyproline deposition [8, 11]: 10%-20% | Lung Nrf2 target enzyme activity ([8]; rats exposed to bleomycin): significantly and dose-dependently increased NQO1, Txnrd, Gsr, and Gst enzyme activity | B cells within the airways (ovalbumin-induced asthma; 30 mg/kg): significantly reduced the number and percentage of B cells within the airways | Macrophages detected in the airways (ovalbumin-induced asthma; 3 and 30 mg/kg): significantly reduced the number of macrophages | fraction unbound [9]: < 0.01 | fraction unbound [10]: 0.05
